From patent US20240389592A1, “FUNGICIDAL COMPOSITIONS” (SYNGENTA CROP PROTECTION AG, priority 2021, published 2024)

Tests used:
[1] = test system: Septoria tritici (leaf blotch); test: Septoria tritici liquid culture growth inhibition (microtiter plate, PDB); format: cell-based; conditions: single active ingredient, 72 hrs
Text: (§1) A synergistic effect exists whenever the action of an active ingredient combination is greater than the sum of the actions of the individual components. The action to be expected E for a given active ingredient combination obeys the so-called COLBY formula and can be calculated as follows (COLBY, S. R. “Calculating synergistic and antagonistic responses of herbicide combination”. Weeds, Vol. 15, pages 20-22; 1967): • ppm=milligrams of active ingredient (=a.i.) per liter of spray mixture • X=% action by active ingredient A) using p ppm of active ingredient • Y=% action by active ingredient B) using q ppm of active ingredient.
(§2) According to COLBY, the expected (additive) action of active ingredients A)+B) using p+q ppm of active ingredient is
(§3) If the action actually observed (O) is greater than the expected action (E), then the action of the combination is super-additive, i.e. there is a synergistic effect. In mathematical terms, synergism corresponds to a positive value for the difference of (O-E). In the case of purely complementary addition of activities (expected activity), said difference (O-E) is zero. A negative value of said difference (O-E) signals a loss of activity compared to the expected activity.
Septoria tritici (Leaf Blotch):
Conidia of the fungus from cryogenic storage were directly mixed into nutrient broth (PDB potato dextrose broth). A DMSO solution of the test compounds was placed into a microtiter plate (96-well format) and the nutrient broth containing the fungal spores was added to it. The test plates were incubated at 24 C and the inhibition of growth was determined photometrically after 72 hrs.

[2] = test system: Glomerella lagenarium syn. Colletotrichum lagenarium (Anthracnose of cucurbits); test: Glomerella lagenarium liquid culture growth inhibition (microtiter plate, PDB); format: cell-based; conditions: single active ingredient, 72 hrs
Text: A synergistic effect exists whenever the action of an active ingredient combination is greater than the sum of the actions of the individual components. The action to be expected E for a given active ingredient combination obeys the so-called COLBY formula and can be calculated as follows (COLBY, S. R. “Calculating synergistic and antagonistic responses of herbicide combination”. Weeds, Vol. 15, pages 20-22; 1967): • ppm=milligrams of active ingredient (=a.i.) per liter of spray mixture • X=% action by active ingredient A) using p ppm of active ingredient • Y=% action by active ingredient B) using q ppm of active ingredient. According to COLBY, the expected (additive) action of active ingredients A)+B) using p+q ppm of active ingredient is If the action actually observed (O) is greater than the expected action (E), then the action of the combination is super-additive, i.e. there is a synergistic effect. In mathematical terms, synergism corresponds to a positive value for the difference of (O-E). In the case of purely complementary addition of activities (expected activity), said difference (O-E) is zero. A negative value of said difference (O-E) signals a loss of activity compared to the expected activity. Glomerella Lagenarium Syn. Colletotrichum lagenarium (Anthracnose of Cucurbits): Conidia of the fungus from cryogenic storage were directly mixed into nutrient broth (PDB potato dextrose broth). A DMSO solution of the test compounds was placed into a microtiter plate (96-well format) and the nutrient broth containing the fungal spores was added to it. The test plates were incubated at 24 C and the inhibition of growth was determined photometrically after 72 hrs at 620 nm.

[3] = test system: Phakopsora pachyrhizi (Asian soybean rust); test: Phakopsora pachyrhizi soybean leaf disk test after whole plant spray; format: in vivo; conditions: single active ingredient, evaluation 11 to 14 days after inoculation
Text: as §1, §2, §3
Phakopsora pachyrhizi (Soybean Rust):
Whole soybean plants are treated with the recited active ingredients 4 weeks after planting. 1 day after spraying leaf disks are cut from the first trifoliate leaf. Five repetitions at each rate are conducted. The leaf disks are inoculated with Phakopsora pachyrhizi (Asian soybean rust) one day after treatment. Evaluation of the leaf disks is conducted 11 to 14 days after inoculation and the activity is derived from the relation of the treated vs untreated, infested check. The rates of the active ingredients used are given in Table as g active ingredient (a.i.)/ha.

Row | Molecule | Observed Activity (%) ([1]; 10 g ai/ha) | Observed Activity (%) ([1]; 20 g ai/ha, 24 C) | Observed Activity (%) ([2]; 10 g ai/ha) | Observed Activity (%) ([2]; 20 g ai/ha, 24 C, 620 nm) | inhibition at 0.1 g/ha ([3]; Phakopsora pachyrhizi, foliar, 0.1 g ai/ha, read-out: Observed Activity (%)) [%] | Observed Activity (%) ([2]; 0.74 g ai/ha) | Observed Activity (%) ([2]; 2.22 g ai/ha) | Observed Activity (%) ([2]; 6.66 g ai/ha) | Observed Activity (%) ([3]; 0.1 g ai/ha) | Observed Activity (%) ([3]; 0.3 g ai/ha) | Observed Activity (%) ([3]; 0.9 g ai/ha) | Observed Activity (%) ([1]; 0.0246 g ai/ha) | Observed Activity (%) ([1]; 0.074 g ai/ha) | Observed Activity (%) ([1]; 0.22 g ai/ha)
1 | CCOC(=O)c1cnn(Cc2ccc(O/C=C(\OCC)C(F)(F)F)cc2)c1 [Compound A-1.2, ethyl 1-[[4-[[(1Z)-2-ethoxy-3,3,3-trifluoro-1-propen-1-yl]oxy]phenyl]methyl]-1H-pyrazole-4-carboxylate] | 0 | 0 | 0 | 0 | 16 | – | – | – | – | – | – | – | – | –
2 | O=C(Nc1ccccc1F)c1ccc(-c2noc(C(F)(F)F)n2)cc1 [Flufenoxadiazam, flufenoxadiazam] | – | – | – | 90 | – | 20 | 20 | 50 | 3 | 5 | 31 | – | – | –
3 | CCC(=O)Oc1c(OC)ccnc1C(=O)N[C@@H](C)C(=O)O[C@@H](C)[C@@H](C)c1ccccc1C [Metarylpicoxamid, metarylpicoxamid] | – | – | – | – | – | – | – | – | 0 | 51 | – | – | – | –
4 | inpyrfluxam | – | – | – | – | – | – | – | – | 13 | 25 | 68 | 20 | 70 | 90
